Experimental data taken from patent EP0271192A2, “Purine histamine H1 antagonists, their preparation and pharmaceutical compositions containing them” (AMERICAN HOME PRODUCTS CORPORATION, priority 1986, dated 1988).

Legend:
H₁-receptor [1] = target: T1, H₁-receptor (Cavia porcellus, UniProt P31389); assay: Shift of the histamine dose-response curve in ileum tissue; format: cell-based, guinea pigs; details: ileum tissues
T1 construct: Fresh segments of terminal ileum immediately proximal to Peyer's patch, obtained from male Buckshire guinea pigs; from tissue; host or cells: guinea pig terminal ileum segments

H₁-receptor [2] = target: T1, H₁-receptor; assay: Reduction of histamine-induced contraction of isolated guinea pig ileum; format: cell-based, guinea pigs; details: test drug 1 × 10⁻⁷M in the presence of histamine 1 × 10⁻⁶M; guinea pig terminal ileum; quadruplicate sets of tissues; read-out: percent reduction in tissue contraction
Protocol: The compounds of this invention were established to be histamine H₁-antagonists by subjecting them to the following standard test procedures for H₁-blocking activity:
Fresh segments of terminal ileum immediately proximal to Peyer's patch, obtained from male Buckshire guinea pigs, were suspended in 37°C Tyrode's solution in a tissue bath and aerated. The tissue segments were placed under one gram tension and allowed to equilibrate for one hour. Histamine was added to each tissue bath to a final concentration of 1 × 10⁻⁶M. The contraction response after it equilibrated was noted as grams tension. Test drug was added, in the presence of histamine, to each bath to a final concentration of 1 × 10⁻⁷M. The change in grams tension was noted and the percent reduction in grams tension calculated.

[3] = tested on: histamine-induced death in guinea pigs; assay: Protection against histamine-induced death after oral pretreatment; format: in vivo

T1 sequence (P31389 whole entry): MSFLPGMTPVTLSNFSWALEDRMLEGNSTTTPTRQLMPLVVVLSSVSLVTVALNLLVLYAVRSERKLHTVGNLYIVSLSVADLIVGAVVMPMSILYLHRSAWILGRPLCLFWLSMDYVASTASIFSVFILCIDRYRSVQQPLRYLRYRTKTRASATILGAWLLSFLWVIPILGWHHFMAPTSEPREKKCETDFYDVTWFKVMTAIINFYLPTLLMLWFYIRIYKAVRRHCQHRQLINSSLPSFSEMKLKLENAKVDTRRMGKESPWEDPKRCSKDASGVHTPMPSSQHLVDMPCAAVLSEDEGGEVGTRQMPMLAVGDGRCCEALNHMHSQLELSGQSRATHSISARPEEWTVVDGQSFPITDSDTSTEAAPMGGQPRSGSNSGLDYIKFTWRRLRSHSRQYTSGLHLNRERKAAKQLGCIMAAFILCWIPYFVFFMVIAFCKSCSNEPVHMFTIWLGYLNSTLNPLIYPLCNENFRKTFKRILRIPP

Cn1c(=O)c2c(ncn2CCCN2CCC(OC(c3ccccc3)c3ccccc3)CC2)n(C)c1=O [Example 1, 7-[3-(4-Diphenylmethoxy)-1-piperidinyl]propyl-3,7-dihydro-1,3-dimethyl-1H-purine-2,6-dione]
Kb (H₁-receptor [1]; calculated via formula from the dose-response curve shift at 10⁻⁸M compound, read-out: histamine H₁antagonist potency): 0.29 nM | shift of histamine dose-response curve (H₁-receptor [1]; compound at 10⁻⁸M): marked, parallel shift of the curve to the right | inhibition at 0.1 µM (H₁-receptor [2]): 92% | Percent Survival ([3]; 0.5 mg/kg p.o., 18 Hours pretreatment, Trial5): 70% | Percent Survival ([3]; 0.5 mg/kg p.o., 18 Hours pretreatment, Trial 6): 40% | Percent Survival ([3]; 1.0 mg/kg p.o., 1 Hour pretreatment, Trial 1): 40% | Percent Survival ([3]; 1.0 mg/kg p.o., 1 Hour pretreatment, Trial 2): 10% | Percent Survival ([3]; 1.0 mg/kg p.o., 1 Hour pretreatment, Trial 3): 40% | Percent Survival ([3]; 1.0 mg/kg p.o., 2 Hours pretreatment, Trial 3): 70% | Percent Survival ([3]; 1.0 mg/kg p.o., 2 Hours pretreatment, Trial 4): 70% | Percent Survival ([3]; 1.0 mg/kg p.o., 18 Hours pretreatment, Trial5): 80% | Percent Survival ([3]; 5.0 mg/kg p.o., 1 Hour pretreatment, Trial 1): 80% | Percent Survival ([3]; 10.0 mg/kg p.o., 2 Hours pretreatment, Trial 4): 60%

Cn1c(=O)c2c(ncn2CCN2CCC(OC(c3ccc(F)cc3)c3ccc(F)cc3)CC2)n(C)c1=O [Example 4, 7-[2-[4-Bis(4-fluorophenyl)methoxy]-1-piperidinyl]ethyl-3,7-dihydro-1,3-dimethyl-1H-purine-2,6-dione]
inhibition at 0.1 µM (H₁-receptor [2]): 62%
